# In patent publication US20240083886A1, “HETEROCYCLIC GLP-1 AGONISTS” (Gasherbrum Bio, Inc., priority 2020, published 2024):
# Biological target: GLP-1 Receptor (Homo sapiens, UniProt P43220)
# Experiment: GLP-1R agonist cAMP stimulation assay
# Assay type: cell-based
# Settings: not given
# Protocol: Activation of GLP-1 receptor is known to stimulate cyclic AMP (cAMP) production in cells which indicates primary coupling to the Gαs subunit of the G protein heterotrimeric complex.
# To optimize functional activity directed toward Gαs coupling, a HEK293/CRE-Luc cell line developed by HDB stably expressing the GLP-1 Receptor was used. 200× concentration of compound working solutions were prepared (Agilent Technologies Bravo) with ½ log serial dilution in 384-well Echo LDV plate (Labcyte, Cat #LP-0200). 50 nL/well 200× concentration of compound working solutions were moved to 384-well white low volume plate (Greiner, Cat #784075) using Labcyte ECHO550. 1×10^5 cells/mL HEK293/GLP1R/CRE-LUC(HD Biosciences) cell suspensions prepared with assay buffer[DPBS containing 0.5 mM IBMX(Sigma, Cat #15879) and 0.1% BSA (GENVIEW, Cat #FA016-100 g)], 10 uL cell suspensions were added to each well of previous generated assay plate which already contains 50 nl compound at 200×concentration using ThermoFisher Multidrop Combi (1000 cells/well). Seal the plate and incubate at 37° C. with 5% CO2 for 30 min.
# After incubation the cAMP assay signal was generated using cAMP dynamic 2 Kit (Cisbio). 5 μL cAMP-d2 working solution was added to each well, followed with 5 μL Anti-cAMP antibody-cryptate working solution added to each well using ThermoFisher Multidrop Combi. Incubate at room temperature for 1 hour protected from light. Read the fluorescence at 665 and 615 nm with Reader PerkinElmer EnVision.
# % Activity=100%×(mean RLU of test sample−mean RLU of vehicle control)/(mean RLU of MAX control−mean RLU of vehicle control))
# GLP-1 Receptor, sequence (P43220 24-463, species assumed): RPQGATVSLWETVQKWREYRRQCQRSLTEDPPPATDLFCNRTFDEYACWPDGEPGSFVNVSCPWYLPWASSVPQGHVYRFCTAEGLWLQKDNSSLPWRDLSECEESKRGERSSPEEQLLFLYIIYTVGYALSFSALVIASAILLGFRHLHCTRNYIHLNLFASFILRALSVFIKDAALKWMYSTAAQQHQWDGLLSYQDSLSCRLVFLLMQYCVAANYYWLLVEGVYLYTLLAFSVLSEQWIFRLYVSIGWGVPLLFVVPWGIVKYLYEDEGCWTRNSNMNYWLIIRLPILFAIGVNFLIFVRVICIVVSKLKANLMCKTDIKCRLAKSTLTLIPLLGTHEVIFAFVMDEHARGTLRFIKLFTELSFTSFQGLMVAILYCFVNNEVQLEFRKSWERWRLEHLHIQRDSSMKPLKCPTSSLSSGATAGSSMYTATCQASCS
row,Structure (SMILES),EC50
1,"FC(F)(F)c1nnc(-c2cc3nc(CN4CCC(Oc5ccnc(Cc6ccc(Cl)cc6)n5)CC4)n(C[C@@H]4CCO4)c3cn2)[nH]1 [Compound 150a, 2-[(4-chlorophenyl)methyl]-4-({1-[(3-{[(2S)-oxetan-2-yl]methyl}-6-[5-(trifluoromethyl)-4H-1,2,4-triazol-3-yl]-3H-imidazo[4,5-c]pyridin-2-yl)methyl]piperidin-4-yl}oxy)pyrimidine]",0.036 nM
2,"Cc1ccc(-c2ccc3c(c2)nc(CN2CCC(Oc4ccnc(Cc5ccc(Cl)cc5)n4)CC2)n3C[C@@H]2CCO2)nn1 [Compound 124a, 2-{[4-({2-[(4-chlorophenyl)methyl]pyrimidin-4-yl}oxy)piperidin-1-yl]methyl}-5-(6-methylpyridazin-3-yl)-1-{[(2S)-oxetan-2-yl]methyl}-1H-1,3-benzodiazole]",0.59 nM
3,"FC(F)(F)c1nnc(-c2cnc3c(c2)nc(CN2CCC(Oc4ccnc(Cc5ccc(Cl)cc5)n4)CC2)n3C[C@@H]2CCO2)[nH]1 [Compound 120a, 2-[(4-chlorophenyl)methyl]-4-({1-[(3-{[(2S)-oxetan-2-yl]methyl}-6-[5-(trifluoromethyl)-4H-1,2,4-triazol-3-yl]-3H-imidazo[4,5-b]pyridin-2-yl)methyl]piperidin-4-yl}oxy)pyrimidine]",0.17 nM
4,"FC(F)(F)c1nnc(-c2cnc3c(c2)nc(CN2CCC(Oc4cccc(Cc5ccc(Cl)cc5)n4)CC2)n3C[C@@H]2CCO2)[nH]1 [Compound 143a, 2-[(4-chlorophenyl)methyl]-6-({1-[(3-{[(2S)-oxetan-2-yl]methyl}-6-[5-(trifluoromethyl)-4H-1,2,4-triazol-3-yl]-3H-imidazo[4,5-b]pyridin-2-yl)methyl]piperidin-4-yl}oxy)pyridine]",0.22 nM
5,"Fc1cc(Cl)ccc1Cc1nccc(OC2CCN(Cc3nc4cc(-c5nnc[nH]5)ncc4n3C[C@@H]3CCO3)CC2)n1 [Compound 166a, 2-[(4-chloro-2-fluorophenyl)methyl]-4-({1-[(3-{[(2S)-oxetan-2-yl]methyl}-6-(4H-1,2,4-triazol-3-yl)-3H-imidazo[4,5-c]pyridin-2-yl)methyl]piperidin-4-yl}oxy)pyrimidine]",1.8 nM
6,"FC(F)(F)c1nnc(-c2cc3nc(CN4CCC(Oc5cccc(Cc6ccc(Cl)cc6)n5)CC4)n(C[C@@H]4CCO4)c3cn2)[nH]1 [Compound 140a, 2-[(4-chlorophenyl)methyl]-6-({1-[(3-{[(2S)-oxetan-2-yl]methyl}-6-[5-(trifluoromethyl)-4H-1,2,4-triazol-3-yl]-3H-imidazo[4,5-c]pyridin-2-yl)methyl]piperidin-4-yl}oxy)pyridine]",1.7 nM

# Same assay, conditions: HEK293/GLP1R/CRE-LUC cells, cAMP dynamic 2 Kit (Cisbio), 30 min incubation at 37° C.; read-out: EC50
row,Structure (SMILES),EC50
1,"N#CC1(Cn2c(CN3CCC(Oc4ccnc(Cc5ccc(Cl)cc5)n4)CC3)nc3cc(-c4noc(=O)[nH]4)ccc32)CC1 [Compound 155, 1-[(2-{[4-({2-[(4-chlorophenyl)methyl]pyrimidin-4-yl}oxy)piperidin-1-yl]methyl}-5-(5-oxo-4,5-dihydro-1,2,4-oxadiazol-3-yl)-1H-1,3-benzodiazol-1-yl)methyl]cyclopropane-1-carbonitrile]",0.32 nM
2,"FC(F)(F)c1cnn(Cc2cccc(OC3CCN(Cc4nc5cc(-c6nnc(C(F)(F)F)[nH]6)ncc5n4C[C@@H]4CCO4)CC3)n2)c1 [Compound 186a, 2-({1-[(3-{[(2S)-oxetan-2-yl]methyl}-6-[5-(trifluoromethyl)-4H-1,2,4-triazol-3-yl]-3H-imidazo[4,5-c]pyridin-2-yl)methyl]piperidin-4-yl}oxy)-6-{[4-(trifluoromethyl)-1H-pyrazol-1-yl]methyl}pyridine]",4.4 nM
3,"CCc1ccc(C(=O)Nc2ccc3c(c2)nc(CN2CCC(Oc4ccnc(Cc5ccc(Cl)cc5F)n4)CC2)n3C[C@@H]2CCO2)cn1 [Compound 114a, N-(2-{[4-({2-[(4-chloro-2-fluorophenyl)methyl]pyrimidin-4-yl}oxy)piperidin-1-yl]methyl}-1-{[(2S)-oxetan-2-yl]methyl}-1H-1,3-benzodiazol-5-yl)-6-ethylpyridine-3-carboxamide]",1.6 nM
4,"Fc1cc(Cl)ccc1Cc1nccc(OC2CCN(Cc3nc4cc(-c5nnn[nH]5)ncc4n3C[C@@H]3CCO3)CC2)n1 [Compound 177a, 2-[(4-chloro-2-fluorophenyl)methyl]-4-({1-[(3-{[(2S)-oxetan-2-yl]methyl}-6-(1H-1,2,3,4-tetrazol-5-yl)-3H-imidazo[4,5-c]pyridin-2-yl)methyl]piperidin-4-yl}oxy)pyrimidine]",0.13 nM
5,"O=c1[nH]c(-c2cc3nc(CN4CCC(Oc5nc(Cc6ccc(Cl)cc6F)ncc5F)CC4)n(C[C@@H]4CCO4)c3cn2)no1 [Compound 171a, 3-(2-{[4-({2-[(4-chloro-2-fluorophenyl)methyl]-5-fluoropyrimidin-4-yl}oxy)piperidin-1-yl]methyl}-3-{[(2S)-oxetan-2-yl]methyl}-3H-imidazo[4,5-c]pyridin-6-yl)-4,5-dihydro-1,2,4-oxadiazol-5-one]",0.17 nM
6,"O=c1[nH]c(-c2ccc3c(c2)nc(CN2CCC(Oc4ccnc(Cc5ccc(Cl)cc5)n4)CC2)n3C[C@@H]2CCO2)no1 [Compound 108a, 3-(2-{[4-({2-[(4-chlorophenyl)methyl]pyrimidin-4-yl}oxy)piperidin-1-yl]methyl}-1-{[(2S)-oxetan-2-yl]methyl}-1H-1,3-benzodiazol-5-yl)-4,5-dihydro-1,2,4-oxadiazol-5-one]",0.38 nM
7,"O=C(O)c1ccc2c(c1)nc(CN1CCC(Oc3nc(Cc4ccc(Cl)cc4F)ncc3F)CC1)n2C[C@@H]1CCO1 [Compound 165a, 2-{[4-({2-[(4-chloro-2-fluorophenyl)methyl]-5-fluoropyrimidin-4-yl}oxy)piperidin-1-yl]methyl}-1-{[(2S)-oxetan-2-yl]methyl}-1H-1,3-benzodiazole-5-carboxylic acid]",12 nM
8,"N#CC1(Cn2c(CN3CCC(Oc4nc(Cc5ccc(Cl)cc5)ncc4F)CC3)nc3cc(-c4nnc(C(F)(F)F)[nH]4)ncc32)CC1 [Compound 178, 1-[(2-{[4-({2-[(4-chlorophenyl)methyl]-5-fluoropyrimidin-4-yl}oxy)piperidin-1-yl]methyl}-6-[5-(trifluoromethyl)-4H-1,2,4-triazol-3-yl]-3H-imidazo[4,5-c]pyridin-3-yl)methyl]cyclopropane-1-carbonitrile]",0.2 nM
9,"Fc1cc(Cl)ccc1Cc1cccc(OC2CCN(Cc3nc4cc(-c5nnn[nH]5)ccc4n3C[C@@H]3CCO3)CC2)n1 [Compound 110a, 2-{[4-({6-[(4-chloro-2-fluorophenyl)methyl]pyridin-2-yl}oxy)piperidin-1-yl]methyl}-1-{[(2S)-oxetan-2-yl]methyl}-5-(1H-1,2,3,4-tetrazol-5-yl)-1H-1,3-benzodiazole]",0.38 nM
10,"O=C(Nc1ccc2c(c1)nc(CN1CCC(Oc3ccnc(Cc4ccc(Cl)cc4)n3)CC1)n2C[C@@H]1CCO1)c1cccnc1 [Compound 102a, N-(2-{[4-({2-[(4-chlorophenyl)methyl]pyrimidin-4-yl}oxy)piperidin-1-yl]methyl}-1-{[(2S)-oxetan-2-yl]methyl}-1H-1,3-benzodiazol-5-yl)pyridine-3-carboxamide]",0.31 nM
11,"O=C(Nc1ccc2c(c1)nc(CN1CCC(Oc3ccnc(Cc4ccc(Cl)cc4F)n3)CC1)n2C[C@@H]1CCO1)c1cccnc1 [Compound 111a, N-(2-{[4-({2-[(4-chloro-2-fluorophenyl)methyl]pyrimidin-4-yl}oxy)piperidin-1-yl]methyl}-1-{[(2S)-oxetan-2-yl]methyl}-1H-1,3-benzodiazol-5-yl)pyridine-3-carboxamide]",0.089 nM
12,"O=c1[nH]c(-c2cc3nc(CN4CCC(Oc5ccnc(Cc6ccc(Cl)cc6)n5)CC4)n(C[C@@H]4CCO4)c3cn2)no1 [Compound 145a, 3-(2-{[4-({2-[(4-chlorophenyl)methyl]pyrimidin-4-yl}oxy)piperidin-1-yl]methyl}-3-{[(2S)-oxetan-2-yl]methyl}-3H-imidazo[4,5-c]pyridin-6-yl)-4,5-dihydro-1,2,4-oxadiazol-5-one]",0.082 nM
13,"O=C(O)c1ccc2c(c1)nc(CN1CCC(Oc3ccnc(Cc4ccc(Cl)cc4)n3)CC1)n2C[C@@H]1CCO1 [Compound 134a, 2-{[4-({2-[(4-chlorophenyl)methyl]pyrimidin-4-yl}oxy)piperidin-1-yl]methyl}-1-{[(2S)-oxetan-2-yl]methyl}-1H-1,3-benzodiazole-5-carboxylic acid]",0.053 nM
14,"Fc1cc2c(cc1-c1nnc(C(F)(F)F)[nH]1)nc(CN1CCC(Oc3ccnc(Cc4ccc(Cl)cc4)n3)CC1)n2C[C@@H]1CCO1 [Compound 122a, 2-{[4-({2-[(4-chlorophenyl)methyl]pyrimidin-4-yl}oxy)piperidin-1-yl]methyl}-6-fluoro-1-{[(2S)-oxetan-2-yl]methyl}-5-[5-(trifluoromethyl)-4H-1,2,4-triazol-3-yl]-1H-1,3-benzodiazole]",0.54 nM
15,"Cc1cncc(C(=O)Nc2ccc3c(c2)nc(CN2CCC(Oc4ccnc(Cc5ccc(Cl)cc5)n4)CC2)n3C[C@@H]2CCO2)c1 [Compound 101a, N-(2-{[4-({2-[(4-chlorophenyl)methyl]pyrimidin-4-yl}oxy)piperidin-1-yl]methyl}-1-{[(2S)-oxetan-2-yl]methyl}-1H-1,3-benzodiazol-5-yl)-5-methylpyridine-3-carboxamide]",0.081 nM
